Assay: Vasorelaxant effect in rabbit pulmonary artery assessed as inhibition of KCl-induced contraction at 100 uM
Format: functional
Details: Oryctolagus cuniculus

Row | SMILES | inhibition at 100 µM
1 | N#Cc1c(-c2cccnc2)cc(-c2cccc(Nc3ccc(=O)[nH]n3)c2)[nH]c1=O | 8.17%
2 | COc1ccc2nc(C)cc(Nc3ccc(C4=NNC(=O)CC4)c(O)c3)c2c1 | 34.3%
3 | Cc1[nH]c(=O)c(C#N)cc1-c1ccncc1 [MILRINONE] | 60.5%
4 | CCOC(=O)c1c[nH]c2ccc(C3=NNC(=O)CC3C)cc2c1=O (stereo unspecified) | 14.5%
5 | CCOC(=O)c1c[nH]c2ccc(C3=NNC(=O)CC3)cc2c1=O | 14.5%
6 | COc1ccc2nc(C)cc(Nc3ccc(C4=NNC(=O)CC4)c(C)c3)c2c1 | 25%
7 | N#Cc1c(-c2cccc([N+](=O)[O-])c2)cc(-c2cccc(Nc3ccc(=O)[nH]n3)c2)[nH]c1=O | 9.1%
8 | Cc1ccc2nc(C)cc(Nc3ccc(C4=NNC(=O)CC4)c(O)c3)c2c1 | 18.5%
9 | CCOc1ccc2nc(C)cc(Nc3ccc(C4=NNC(=O)CC4)c(O)c3)c2c1 | 36.2%
10 | Cc1ccc2nc(C)cc(Nc3ccc(C4=NNC(=O)CC4C)cc3)c2c1 (stereo unspecified) | 22.7%
11 | COc1ccc2nc(C)cc(Nc3ccc(C4=NNC(=O)CC4C)cc3)c2c1 (stereo unspecified) | 21.5%
